From US5770617A, “Terbenzimidazoles useful as antifungal agents” (Rutgers, The State University of New Jersey, priority 1997, dated 1998)

What was measured:
human topoisomerase I = target: T1, human topoisomerase I (Homo sapiens, UniProt P11387); experiment: Topoisomerase I cleavage assay, human enzyme; format: biochemical; conditions: recombinant human topoisomerase I
T1 construct: made in house; host or cells: Escherichia coli BL21 (DE3) harboring PET1B
T1 sequence (P11387 1-765): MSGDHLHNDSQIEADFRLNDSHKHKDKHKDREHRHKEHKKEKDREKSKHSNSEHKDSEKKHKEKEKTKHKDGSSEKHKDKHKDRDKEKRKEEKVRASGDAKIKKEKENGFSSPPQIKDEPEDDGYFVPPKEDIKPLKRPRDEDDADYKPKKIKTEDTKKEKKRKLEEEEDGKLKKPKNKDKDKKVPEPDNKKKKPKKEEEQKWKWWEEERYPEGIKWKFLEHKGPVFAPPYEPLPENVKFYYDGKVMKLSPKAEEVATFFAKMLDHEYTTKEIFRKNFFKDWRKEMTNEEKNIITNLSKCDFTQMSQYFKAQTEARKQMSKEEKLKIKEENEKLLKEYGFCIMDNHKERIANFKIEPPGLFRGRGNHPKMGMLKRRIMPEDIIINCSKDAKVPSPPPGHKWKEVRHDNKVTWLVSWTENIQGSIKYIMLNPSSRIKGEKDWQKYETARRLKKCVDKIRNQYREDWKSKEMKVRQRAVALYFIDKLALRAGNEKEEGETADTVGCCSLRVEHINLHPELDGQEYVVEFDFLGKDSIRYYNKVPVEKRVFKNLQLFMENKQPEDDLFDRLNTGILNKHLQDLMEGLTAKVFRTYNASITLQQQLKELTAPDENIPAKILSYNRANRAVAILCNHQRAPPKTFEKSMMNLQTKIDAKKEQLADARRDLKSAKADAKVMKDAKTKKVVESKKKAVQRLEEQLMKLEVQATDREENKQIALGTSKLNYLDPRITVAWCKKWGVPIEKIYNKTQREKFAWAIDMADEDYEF
Experimental: (§1) Plasmid YEpG was also purified by the alkali lysis method followed by phenol deproteination and CsCl/ethidium isopycnic centrifugation as described by T. Maniatis et al., Molecular Cloning, A Laboratory Manual, Cold Spring Harbor Labs, N.Y. (1982) at pages 149-185. The end-labeling of the plasmid was accomplished as previously described by L. F. Liu et al., J. Biol. Chem., 258, 15365 (1983). The cleavage assays were performed as previously reported by A. Y. Chen et al., Cancer Res., 53, 1332 (1993). Human topoisomerase I was isolated as a recombinant fusion protein using a T7 expression system.
Subsequent steps in purification were the same as described previously for purification of recombinant human DNA topoisomerase I (B. Gatto et al., Cancer Res., 56, 2795 (1996)). Briefly, the supernatant was chromatographed directly onto a hydroxyapatite Bio-gel HTP (BioRad Laboratories, Richmond, Calif.) column. Fractions containing relaxation activity were pooled, diluted and then loaded onto a BioRex70 column (BioRad Laboratories, Richmond, Calif.). The column was developed with a linear gradient from 0.2 to 1M KCl. The peak fractions were pooled and dialyzed overnight at 4° C. against 30 mM potassium phosphate, 50% glycerol (v/v), 0.5 mM EDTA, and 1 mM DTT. Recombinant human topoisomerase I was purified from Escherichia coli BL21 (DE3) harboring PET1B as described previously (Gatto et al., Cancer Res., 56, 2795 (1996)).
DNA topoisomerase I cleavage assays were performed as described by Y.-H. Hsiang et al., J. Biol. Chem., 260, 14873 (1985). YEpG DNA was linearized with BamHI and then 3 '-end-labeled with Klenow polymerase and α[-^32 P]dCTP. Following phenol extraction and ethanol precipitation, the labeled DNA was resuspended in 10 mM Tris, pH 8.0, and 1 mM EDTA. The DNA cleavage assay was done in a reaction mixture (20 μl) containing 40 mM Tris-HCl, pH 7.8, 100 mM KCl, 10 mM MgCl2, 0.5 mM dithiothreitol, 0.5 mM EDTA, 30 μg/ml bovine serum albumin, 20 ng of labeled YEpG DNA, and […] of Aspergillus or human topoisomerase I diluted to various extents. Following incubation at 23° C. for 15 minutes, the reactions were terminated by the addition of SDS (final concentration 1%) and proteinase K (final concentration 200 μg/ml). Proteinase K treatment continued at 37° C. for another 1 hour. The terminated reactions were either alkali-denatured and then loaded (alkaline loading) or loaded directedly in neutral loading buffer (neutral loading) onto a 1% agarose gel in neutral TPE electrophoresis solution. Gel drying and autoradiography were performed as described by Hsiang et al., cited above.

[1] = target: T2, calf thymus topoisomerase I (Bos taurus, UniProt F1MN93); experiment: Topoisomerase I-mediated DNA cleavage assay (calf thymus enzyme); format: biochemical; conditions: for Topo I-mediated DNA cleavage (REC, Relative Effective Concentration): concentration relative to Hoechst 33342 (arbitrarily 1) producing the same cleavage on plasmid DNA, calf thymus topoisomerase I
T2 construct: DNA topoisomerase I was purified from calf thymus gland as reported previously; from tissue; host or cells: calf thymus gland
T2 sequence (F1MN93 1-767): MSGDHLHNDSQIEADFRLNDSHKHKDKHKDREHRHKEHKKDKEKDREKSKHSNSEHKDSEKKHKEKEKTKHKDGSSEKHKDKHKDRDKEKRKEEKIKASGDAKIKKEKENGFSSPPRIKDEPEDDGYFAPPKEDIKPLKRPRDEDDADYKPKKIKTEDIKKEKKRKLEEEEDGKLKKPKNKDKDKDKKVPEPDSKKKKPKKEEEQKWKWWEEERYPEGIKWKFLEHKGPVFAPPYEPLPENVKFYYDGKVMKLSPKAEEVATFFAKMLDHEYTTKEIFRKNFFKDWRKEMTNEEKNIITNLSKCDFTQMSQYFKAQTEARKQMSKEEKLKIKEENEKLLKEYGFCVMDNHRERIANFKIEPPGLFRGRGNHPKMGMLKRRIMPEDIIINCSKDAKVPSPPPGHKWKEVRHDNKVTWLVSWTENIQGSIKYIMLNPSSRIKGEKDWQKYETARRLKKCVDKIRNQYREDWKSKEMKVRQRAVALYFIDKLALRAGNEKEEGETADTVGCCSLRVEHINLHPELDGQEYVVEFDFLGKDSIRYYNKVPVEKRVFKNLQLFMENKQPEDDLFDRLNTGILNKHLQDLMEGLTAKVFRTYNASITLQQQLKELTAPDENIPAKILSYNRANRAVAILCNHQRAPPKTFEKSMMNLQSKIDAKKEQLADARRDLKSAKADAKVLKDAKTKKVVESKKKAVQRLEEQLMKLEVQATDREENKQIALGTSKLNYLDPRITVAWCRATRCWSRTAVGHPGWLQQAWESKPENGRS
Excerpt: A. Topoisomerase I-Mediated DNA Cleavage Assays
DNA topoisomerase I was purified from calf thymus gland as reported previously by B. D. Halligan et al., J. Biol. Chem., 260, 2475 (1985).
as §1

Structure (SMILES)	sensitivity of human topoisomerase I to poisoning / DNA cleavage with human topoisomerase I, in words (human topoisomerase I)	potency as topoisomerase I inhibitor compared with Hoechst 33342, in words [1]	Topo I-mediated DNA cleavage (REC, Relative Effective Concentration) [1]
CCOc1ccc(-c2nc3cc(-c4nc5cc(N6CCN(C)CC6)ccc5[nH]4)ccc3[nH]2)cc1 [Hoechst 33342, 2'-(4-ethoxyphenyl)-5-(4-methyl-1-piperazinyl)-2,5'-bi-1H-benzimidazole]	sensitive		
CC[C@@]1(O)C(=O)OCc2c1cc1n(c2=O)Cc2cc3ccccc3nc2-1 [camptothecin]	sensitive		
c1ccc(-c2ccc3[nH]c(-c4ccc5[nH]c(-c6ccc7[nH]cnc7c6)nc5c4)nc3c2)cc1 [Compound 13, 5-Phenyl-2-[2'(benzimidazol-5"-yl)benzimidazol-5'-yl]benzimidazole]	sensitive	approximately one-half as potent	2
N#Cc1ccc2[nH]c(-c3ccc4[nH]c(-c5ccc6[nH]cnc6c5)nc4c3)nc2c1 [Compound 11, 5-Cyano-2-[2'-(benzimidazol-5"-yl)benzimidazol-5'-yl]benzimidazole]	sensitive		1
